According to ChEMBL document CHEMBL3867482, “Design and synthesis of water soluble β-aminosulfone analogues of SCH 900229 as γ-secretase inhibitors” (Bioorg Med Chem Lett, 2016):

What was measured:
[1] = Inhibition of gamma-secretase in HEK293 cell membranes expressing human APP Swedish/London double mutant assessed as reduction in amyloid beta 40 formation after 1 hr by electrochemiluminescence based immunoassay
Cytochrome P450 2C9 = Cytochrome P450 2C9 (Homo sapiens, UniProt P11712); experiment: Inhibition of CYP2C9 in human liver microsomes after 30 secs by LC/MS/MS analysis; assay type: ADME
Sequence of Cytochrome P450 2C9 (P11712 whole entry): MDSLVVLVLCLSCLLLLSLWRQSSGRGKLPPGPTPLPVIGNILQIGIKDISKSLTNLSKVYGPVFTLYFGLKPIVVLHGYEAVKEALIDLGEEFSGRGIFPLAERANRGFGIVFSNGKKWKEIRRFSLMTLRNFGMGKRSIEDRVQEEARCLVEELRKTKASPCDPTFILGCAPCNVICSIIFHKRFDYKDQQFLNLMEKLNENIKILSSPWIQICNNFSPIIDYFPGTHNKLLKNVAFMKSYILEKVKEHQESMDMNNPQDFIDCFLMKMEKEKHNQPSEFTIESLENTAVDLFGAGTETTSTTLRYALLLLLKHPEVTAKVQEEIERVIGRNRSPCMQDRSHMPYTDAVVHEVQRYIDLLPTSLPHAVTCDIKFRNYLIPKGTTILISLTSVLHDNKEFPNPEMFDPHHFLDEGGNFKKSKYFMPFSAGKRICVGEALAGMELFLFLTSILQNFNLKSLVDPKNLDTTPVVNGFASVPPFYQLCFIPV

[2] = Clearance in dog hepatocytes assessed per million cells by HPLC/atmospheric pressure chemical ionization/MS analysis; assay type: ADME, cell-based, Canis lupus familiaris, Hepatocyte; conditions: read-out: CLH
Mus musculus [3] = experiment: Antialzheimer activity in B6C3F1 mouse assessed as amyloid beta 40 level in cortex at 10 mg/kg, po administered as single dose after 3 hrs relative to control; assay type: functional
Cytochrome P450 2D6 = Cytochrome P450 2D6 (Homo sapiens, UniProt P10635); experiment: Inhibition of CYP2D6 in human liver microsomes after 30 secs by LC/MS/MS analysis; assay type: ADME
Sequence of Cytochrome P450 2D6 (P10635 whole entry): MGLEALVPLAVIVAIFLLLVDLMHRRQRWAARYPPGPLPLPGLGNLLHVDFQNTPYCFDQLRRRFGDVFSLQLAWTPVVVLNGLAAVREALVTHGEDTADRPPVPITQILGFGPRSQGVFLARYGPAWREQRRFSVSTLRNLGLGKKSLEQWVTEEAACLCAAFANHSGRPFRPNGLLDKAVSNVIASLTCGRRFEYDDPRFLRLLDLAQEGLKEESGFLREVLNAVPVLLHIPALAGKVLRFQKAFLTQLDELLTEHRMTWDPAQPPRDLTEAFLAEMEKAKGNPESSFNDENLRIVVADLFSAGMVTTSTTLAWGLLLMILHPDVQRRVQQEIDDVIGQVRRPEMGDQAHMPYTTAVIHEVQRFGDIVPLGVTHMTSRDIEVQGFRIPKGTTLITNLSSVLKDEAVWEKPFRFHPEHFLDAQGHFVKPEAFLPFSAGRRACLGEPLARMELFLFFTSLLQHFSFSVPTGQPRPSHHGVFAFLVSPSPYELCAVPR

[4] = AUC (0 to 6 hrs) in mouse at 10 mg/kg, po by LC/MS/MS analysis; assay type: ADME, organism-based; set-up: time < 6 hr, dose 10 mg/kg, route oral; conditions: in vivo
[5] = Clearance in human hepatocytes assessed per million cells by HPLC/atmospheric pressure chemical ionization/MS analysis; assay type: ADME, cell-based, Hepatocyte; conditions: read-out: CLH
Cytochrome P450 3A4 [6] = biological target: T1, Cytochrome P450 3A4 (Homo sapiens, UniProt P08684); experiment: Inhibition of CYP3A4 in human liver microsomes preincubated for 30 mins after 30 secs by LC/MS/MS analysis; assay type: ADME
T1 sequence (P08684 whole entry): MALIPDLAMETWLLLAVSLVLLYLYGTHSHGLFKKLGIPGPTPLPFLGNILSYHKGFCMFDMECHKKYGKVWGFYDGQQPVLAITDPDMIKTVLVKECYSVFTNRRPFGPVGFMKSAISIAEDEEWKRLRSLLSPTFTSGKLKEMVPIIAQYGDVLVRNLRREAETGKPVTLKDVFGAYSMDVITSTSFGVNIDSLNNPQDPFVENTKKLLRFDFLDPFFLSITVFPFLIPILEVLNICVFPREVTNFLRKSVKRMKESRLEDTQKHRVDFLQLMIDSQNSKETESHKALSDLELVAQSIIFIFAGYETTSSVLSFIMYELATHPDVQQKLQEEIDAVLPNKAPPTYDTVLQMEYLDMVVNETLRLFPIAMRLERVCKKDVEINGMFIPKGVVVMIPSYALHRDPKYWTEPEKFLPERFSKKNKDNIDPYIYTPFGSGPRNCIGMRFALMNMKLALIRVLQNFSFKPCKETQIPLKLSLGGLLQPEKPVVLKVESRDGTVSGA

Mus musculus [7] = experiment: Antialzheimer activity in B6C3F1 mouse assessed as amyloid beta 40 level in plasma at 10 mg/kg, po administered as single dose after 3 hrs relative to control; assay type: functional
[8] = Clearance in monkey hepatocytes assessed per million cells by HPLC/atmospheric pressure chemical ionization/MS analysis; assay type: ADME, cell-based, Macaca mulatta, Hepatocyte; conditions: rhesus monkey, read-out: CLH
[9] = Ratio of drug level in brain to plasma in mouse at 6 hrs; assay type: ADME, organism-based; conditions: brain and plasma, read-out: BPR
Cytochrome P450 3A4 [10] = biological target: T1, Cytochrome P450 3A4; experiment: Inhibition of CYP3A4 in human liver microsomes after 30 secs by LC/MS/MS analysis; assay type: ADME
[11] = Kinetic solubility of compound; assay type: physicochemical; conditions: read-out: Kinetic_solubility
[12] = Clearance in rat hepatocytes assessed per million cells by HPLC/atmospheric pressure chemical ionization/MS analysis; assay type: ADME, cell-based, Hepatocyte; conditions: read-out: CLH
[13] = Drug metabolism in rat assessed as N-demethylation; assay type: ADME
hERG (KCNH2) [14] = biological target: T2, hERG (KCNH2) (Homo sapiens, UniProt Q12809); experiment: Inhibition of human ERG at 10 uM by thallium flux assay
T2 sequence (Q12809 whole entry): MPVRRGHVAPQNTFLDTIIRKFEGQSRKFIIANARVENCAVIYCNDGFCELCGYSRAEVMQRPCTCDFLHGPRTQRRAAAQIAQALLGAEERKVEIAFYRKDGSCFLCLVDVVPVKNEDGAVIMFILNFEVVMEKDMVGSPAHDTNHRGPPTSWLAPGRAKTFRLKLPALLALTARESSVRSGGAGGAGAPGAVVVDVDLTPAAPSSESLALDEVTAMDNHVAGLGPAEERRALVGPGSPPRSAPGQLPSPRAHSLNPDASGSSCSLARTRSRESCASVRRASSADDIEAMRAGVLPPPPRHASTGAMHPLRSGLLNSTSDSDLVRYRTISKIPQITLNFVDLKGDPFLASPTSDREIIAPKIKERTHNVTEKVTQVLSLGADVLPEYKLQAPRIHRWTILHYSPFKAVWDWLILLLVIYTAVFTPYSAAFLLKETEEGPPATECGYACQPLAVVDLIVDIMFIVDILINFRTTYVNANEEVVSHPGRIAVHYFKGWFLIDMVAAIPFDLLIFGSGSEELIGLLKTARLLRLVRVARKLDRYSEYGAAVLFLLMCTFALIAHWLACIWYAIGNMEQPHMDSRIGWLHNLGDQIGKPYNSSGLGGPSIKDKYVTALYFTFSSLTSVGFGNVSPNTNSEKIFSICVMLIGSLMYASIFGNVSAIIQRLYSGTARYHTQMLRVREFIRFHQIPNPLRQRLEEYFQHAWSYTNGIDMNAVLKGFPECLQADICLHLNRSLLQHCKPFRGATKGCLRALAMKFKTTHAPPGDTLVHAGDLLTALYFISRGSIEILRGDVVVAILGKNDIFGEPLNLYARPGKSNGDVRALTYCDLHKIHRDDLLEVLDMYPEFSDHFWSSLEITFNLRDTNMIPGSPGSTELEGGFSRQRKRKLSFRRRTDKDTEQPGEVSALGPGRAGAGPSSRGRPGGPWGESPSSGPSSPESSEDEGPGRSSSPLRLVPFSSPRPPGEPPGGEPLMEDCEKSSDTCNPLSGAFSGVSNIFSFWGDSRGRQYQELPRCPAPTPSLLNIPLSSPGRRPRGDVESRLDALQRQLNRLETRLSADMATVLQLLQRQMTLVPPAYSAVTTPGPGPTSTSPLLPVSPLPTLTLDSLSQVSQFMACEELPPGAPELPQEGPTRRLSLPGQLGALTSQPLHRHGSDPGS

Mus musculus [15] = experiment: Antialzheimer activity in B6C3F1 mouse assessed as amyloid beta 40 levels in plasma at 30 mg/kg, po after 24 hrs; assay type: functional
Mus musculus [16] = experiment: Antialzheimer activity in B6C3F1 mouse assessed as reduction in amyloid beta 40 levels in cortex at 30 mg/kg, po after 24 hrs; assay type: functional; set-up: scale not given: the % may be the effect or the level left
hERG (KCNH2) [17] = biological target: T2, hERG (KCNH2); experiment: Inhibition of human ERG at 1 uM by Thallium flux assay
Mus musculus [18] = experiment: Antialzheimer activity in B6C3F1 mouse assessed as reduction in amyloid beta 40 levels in plasma at 30 mg/kg, po after 6 hrs; assay type: functional; set-up: scale not given: the % may be the effect or the level left
[19] = Drug metabolism in rat assessed as beta-elemination; assay type: ADME
[20] = Dissociation constant, pKa of the compound; assay type: physicochemical
Mus musculus [21] = experiment: Antialzheimer activity in B6C3F1 mouse assessed as reduction in amyloid beta 40 levels in cortex at 30 mg/kg, po after 12 hrs; assay type: functional; set-up: scale not given: the % may be the effect or the level left
Mus musculus [22] = experiment: Antialzheimer activity in B6C3F1 mouse assessed as reduction in amyloid beta 40 levels in plasma at 30 mg/kg, po after 12 hrs; assay type: functional; set-up: scale not given: the % may be the effect or the level left
Mus musculus [23] = experiment: Antialzheimer activity in B6C3F1 mouse assessed as reduction in amyloid beta 40 levels in cortex at 30 mg/kg, po after 6 hrs; assay type: functional; set-up: scale not given: the % may be the effect or the level left

Row | IC50 [1] [nM] | IC50 (Cytochrome P450 2C9) [µM] | hepatocyte CLint [2] [µL/min/1e6 cells] | IC50 (Cytochrome P450 2D6) [µM] | AUC(0-t) at 6 h [4] [µM·h] | hepatocyte CLint [5] [µL/min/1e6 cells] | IC50 (Cytochrome P450 3A4 [6]) [µM] | hepatocyte CLint [8] [µL/min/1e6 cells] | Kp at 6 h [9] | IC50 (Cytochrome P450 3A4 [10]) [µM] | hepatocyte CLint [12] [µL/min/1e6 cells] | Structure (SMILES) | Activity (Mus musculus [3]) [%] | Activity (Mus musculus [7]) [%] | further results
1 | 2.2 | > 20 | 23.5 | > 20 | 0.477 | 20.4 | > 20 | 55.1 | 1 | > 20 | 25.8 | CNC(C)(C)CCS(=O)(=O)CC[C@@H]1OCC[C@@]2(S(=O)(=O)c3ccc(Cl)cc3)c3c(F)ccc(F)c3OC[C@@H]12 | -33 | -51 | solubility kinetic [11]: > 20 µM
2 | 4.1 | > 20 | 11.5 | > 20 | 0.532 | 17.3 | 8.4 | 40.5 | 0.4 | > 20 | 22.3 | CNCCS(=O)(=O)CC[C@@H]1OCC[C@@]2(S(=O)(=O)c3ccc(Cl)cc3)c3c(F)ccc(F)c3OC[C@@H]12 | -61 | -44 | Drug metabolism [13]: Metabolite_Notdetected; inhibition at 10 µM (hERG (KCNH2) [14]): 21%; Activity (Mus musculus [15]): 50%; Activity (Mus musculus [16]): 37%; inhibition at 1 µM (hERG (KCNH2) [17]): 1%; Activity (Mus musculus [18]): 93%; Drug metabolism [19]: Metabolite_Notdetected; pKa [20]: 7.7; Activity (Mus musculus [21]): 66%; Activity (Mus musculus [22]): 35%; Activity (Mus musculus [23]): 73%
